Values joined by “and” are separate entries in the source; they are usually repeats but may differ in a detail not shown here. Identical values can stand only once. Counter-ions that a name gives are not always drawn. Marks after values point to notes of the source that are not given here.
Tests used:
[1] = Molar ratio from neutralization of free organic acid with hydroxides; type: physicochemical; conditions: salt or chelate
Experimental: Determination of salts and chelates of some naturally occurring polyhydroxylated and polycarboxylated organic acids are provided in Table 1. Experimental molar ratios were calculated from neutralization to pH=7.5 of free protonated organic acid (H^+) with sodium, potassium or ammonium hydroxides.

[2] = oral human dose 100 mg/kg (50-200 mg/kg); Smith 1982; cited from earlier work
[3] = Urinary quinic acid, hippuric acid, tryptophan and nicotinamide by HPLC; type: in vivo, human; conditions: over 9 months, Table 4 and text calculations
Experimental: Blood samples were collected by venal puncture using vacutainers (red top, 10 ml) usually in the morning (a.m.) after 12 hours of fasting. Serum was separated from the blood clot after setting 2 hr on the bench top before centrifugation for 10 min at 1500×g. Sera prepared in this manner were stored at +4° C. until biochemical analysis usually within 1-30 days of collection. Urine samples were collected as a random 50 ml sample in the A.M. during the treatment and follow-up (after treatment for 8 months) periods. Urine was spun at 5000×g for 15 min and the supernatant stored at +4° C. until analyzed within 1 month of collection. After the first analysis all samples were further stored at −20° C. and used for repeat determinations over time. Trial design for the clinical evaluation of Aqua Bimini™ (quinic acid ammonium chelate) was carried out at Lund University beginning Apr. 28, 2006. […] Repeat serum and urine samples were collected throughout the trial period and then pooled into groups for analysis as 6 weeks before (baseline), 4 weeks of intervention (treatment, 36 days) and 8 months dry-out (no treatment). Urine samples were mixed with 1:2:4 v/v/v of: aqueous urine:95% ethanol:ethyl acetate for 10 min with vigorous shaking. The ethyl acetate layer was allowed to separate with gravity at room temperature, and then it was removed with a pipette and evaporated with an air stream to dryness in a vacuum hood. In this manner 1-2 ml of urine were reconstituted in 0.2 ml water or ethanol which represented a 5-10 fold increase in concentration. […] The urine samples were diluted 1:2:4 v/v/v with ethanol and ethyl acetate, and then the ethyl acetate fraction dried, solubilized in 0.2 ml water and used for HPLC analyses with 20 μl injections directly onto a C18 80×4.6 mm. The mobile phase was 0.2% trifluoroacetic (TFA):methanol:acetonitrile (70:30):water in a ratio 8:8:84 (v/v/v). The UV detector was set at 215 nm, and quinic acid eluted with a retention of 0.97-1.05 min and nicotinamide at 2.6-2.9 min. The detection limit in urine was about 1.5 mg/ml for quinic acid and for nicotinamide it was 0.015 mg/ml. […] The urine samples were diluted 1:2:4 v/v/v with ethanol and ethyl acetate, and then the ethyl acetate fraction dried, solubilized in 0.2 ml water and used for HPLC analyses with 20 μl injections directly onto a C18 80×4.6 mm. The mobile phase was 70:30 v/v, 0.2% TFA: 30% methanol. The UV detector was set at 225 nm. Tryptophan eluted after 5.2-5.4 min and hippuric acid after 3.1-3.4 min.

[4] = Single high dose quinic acid time study, serum HPLC; type: in vivo; conditions: human
Experimental: Serum samples of 0.2 and 30 ml were collected from blood, and precipitated with either ethanol or trichloroacetic acid (TCA). After clean-up the supernatants were dried (ethanol precipitated) or used directly. A standard curve was prepared using quinic acid (Sigma) dissolved in distilled water and obeyed the equation y=6012.8x−24698; 20 μl injections of solutions between 0-25 mg/ml were used.
A apparently healthy volunteer drank 6 gm of quinic acid ammonium chelate (Quinmax™) dissolved in 300 ml water over a 15 min period, samples were collected, and then about 40 ml of peripheral blood (4-red topped vacutainers) were allowed to clot at room temperature to prepare serum samples by centrifugation. The serum sampling points were 0.7 hr, 1.7 hr, 2.7 hr, 3.7 hr, 10.5 hr 12.5 hr, hr, 28 hr and 44 hr. 30 ml serum samples were precipitated with 50% ethanol, taken to dryness under a stream of air, and redissolved in 1 ml of methanol for simultaneous HPLC analysis of quinic acid and hippuric acid. The data were reported as quinic acid present in 30 ml of serum. The column used for this experiment was a C18 150×4.6 mm. The mobile phase was 0.1% trifluoroacetic (TFA). The UV detector was set at 220 nm and quinic acid eluted with a retention of 2.26 min and hippuric acid at 8.3 min. Sensitivity of the method was about 1/30=0.033 mg quinic acid/ml serum.
A single high dose of 6000 mg was administered orally to a subject, and then 30 ml serum samples were prepared from whole blood samples taken from 0.7 to 44 hours after exposure. As serum samples were precipitated with ethanol and redissolved in 1 ml […], this allowed for a 30-fold increase in concentration of any quinic acid present in each blood sample, rendering the method extremely sensitive to even small amounts of quinic acid.

[5] = test system: indolediamine oxygenase (IDO); experiment: IDO activity from tryptophan/kynurenine molar ratio in serum (HPLC); conditions: quinic acid supplementation in vivo; tryptophan and kynurenine in serum
Experimental: Once tryptophan synthesis has been stimulated by the shikimate pathway, it is then further modified by catabolic metabolism via indolediamine oxygenase (IDO) first to kynurenine and/or hydroxtryptophan-serotonin and/or to quinoline-dopamine or to nicotinamde-NAD (energy). The inhibition of IDO activity by quinic acid exposure in vivo favors reduction in immunosuppressive activity. IDO activity was calculated by determining the molar ratios of tryptophan to kynurenine in 200 ul aliquots of 2 M TCA-precipitated serum by high pressure liquid chromatograph (HPLC). The HPLC method has already been published in all its details except the instrument was a HP 1100 series and the column was a XTERRA MSC18 ([…], 4.6 mm×50 mm) (Laich, A, Neurauter, […], Fuchs, D. More rapid method for simultaneous measurement of tryptophan and kyurenine by HPLC. Clinical Chemistry 48 (3): 579-580, 2002). The effect of quinic acid was further characterized on the end products of the shikimate pathway. Accordingly, quinic acid supplementation was analyzed against IDO activity through simultaneous detection of tryptophan and kynurenine. […]

[6] = Mouse 21 day drinking water study, plasma/serum HPLC; type: in vivo, C57BL/6 female mice; conditions: mice
Experimental: […] The animals were sacrificed, spleens removed and blood collected. The cell samples were analyzed in a […] Corporation, Kobe, Japan) and plasma/serum samples prepared for chemical analysis by HPLC for quinic acid and tryptophan.

spleen cells = experiment: Mouse 21 day drinking water study, spleen cell count; type: in vivo, C57BL/6 female mice; conditions: mice, after day 21 intervention in drinking water; C-Med-100 4 mg/ml (500 mg/kg), quinic acid 2 mg/ml (250 mg/kg)
Experimental: C57BL/6 female mice were fed 4 mg/ml C-Med-100® or 2 mg/ml quinic acid dissolved in autoclaved tap water for 21 days. The animals were sacrificed, spleens removed and blood collected. The cell samples were analyzed in a […] Corporation, Kobe, Japan) and plasma/serum samples prepared for chemical analysis by HPLC for quinic acid and tryptophan.

For `N.N.N.O=C(O)CC(O)(C(=O)O)C(O)C(=O)O` (centres unmarked) [Hydroxy citric acid ammonium salt], the “Determination of structure existing in water” value (“Determination” below) [1] was “Chelate”.

For `O=C(O)[C@]1(O)C[C@@H](O)[C@@H](O)[C@H](O)C1` [Quinic acid potassium salt], the “Determination” value ([1]; potassium salt) was “chelate”.

With `O=C(O)[C@]1(O)C[C@@H](O)[C@@H](O)[C@H](O)C1` [Quinic acid sodium salt] the “Determination” value ([1]; sodium salt) was “salt”.

For `N[C@@H](Cc1c[nH]c2ccccc12)C(=O)O` [Therapeutic tryptophan, tryptophan], the “Urinary excretion daily sample, Tryptophan (avg)” value [2] is given as “Tryptophan. = 1.3 mg/liter^c”.

With `O=C(O)[C@]1(O)C[C@@H](O)[C@@H](O)[C@H](O)C1` [quinic acid] the “quinic acid dose excreted unmetabolized in the urine” value [3] was 40-60%, the “fraction of total dose taken up into the serum” value ([4]; in vivo) was 0.073% and the “quinic acid found in systemic circulation” value ([4]; in vivo) was < 0.1 % of the administered dose. The “quinic acid of total dose taken up into the serum” value ([4]; in vivo) was 4.4 mg, the “quinic acid either excreted or metabolized” value ([4]; in vivo, 44 h) was 99.9% and the “time of maximum uptake of quinic acid into serum” value ([4]; single oral dose 6000 mg) was 10.5 h and 12.5 h. The IDO activity [5] was “inhibits IDO activity”, the “In vivo plasma tryptophan mean ± s.d.” value ([6]; after day 21 intervention in drinking water, C-Med-100 4 mg/ml (500 mg/kg)) was 79.4 ± 2.7^c μM and the “level of quinic acid, below HPLC detection” value ([6]; quinic acid 1 mg/ml in drinking water or about 500 mg/kg, 21 days) was less than 2000 µg/mL. The “In vivo spleen cells mean ± s.d.” value (spleen cells) was 100 ± 10^c ×10^6.

Reference: patent US20100227827A1, “METHOD OF INCREASING TRYPTOPHAN AND NICOTINAMIDE LEVELS IN VIVO” (priority 2006, published 2010)
